Results on five compounds are retold here after patent US12559529B2, “NPY2 receptor agonists” (Boehringer Ingelheim International GmbH, priority 2019, dated 2026).

Structures are written as SMILES. pKi: −log10 of the molar value. *1 amine or outer side, *2 acyl side, *3 side chain or, on linkers, in order; H or OH if unused. Where a SMILES comes first, the peptide text is derived from it. Side-chain parts run from the residue outwards. The star is where a group is joined. C18 diacid = O=C(O)CCCCCCCCCCCCCCCCC(=O)*; γGlu = O=C(O)[C@H](CCC(=O)[*:2])N[*:1]; Isovaleryl = CC(C)CC(=O)*; AEEA = NCCOCCOCC(=O)O

The assay addresses T1, Human Neuropeptide Y2 Receptor (Homo sapiens, UniProt P49146).
T1 construct: purchased CHEMICON HTS066M
T1 sequence (P49146 1-381): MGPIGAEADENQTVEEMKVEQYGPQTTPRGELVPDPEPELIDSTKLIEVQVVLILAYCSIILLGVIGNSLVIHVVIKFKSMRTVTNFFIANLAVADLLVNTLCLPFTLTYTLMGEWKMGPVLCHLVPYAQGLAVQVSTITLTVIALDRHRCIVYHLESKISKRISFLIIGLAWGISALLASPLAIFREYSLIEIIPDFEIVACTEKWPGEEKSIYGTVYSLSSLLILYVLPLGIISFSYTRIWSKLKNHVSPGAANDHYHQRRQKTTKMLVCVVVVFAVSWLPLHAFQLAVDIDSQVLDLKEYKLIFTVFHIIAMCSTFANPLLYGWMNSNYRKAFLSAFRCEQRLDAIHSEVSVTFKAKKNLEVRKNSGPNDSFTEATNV
Description: Radioligand binding competition assay (RLB). The note with it: Table 3; human 125I-PYY (1-36) 0.02 nM, Y2 receptor membranes; read-out: Ki. As for the experimental part: The filtration RLB assay was carried out in 96-well plates in a final volume of 100 μl per well. Freeze-dried test peptides were dissolved in 100% dimethyl sulfoxide (DMSO) to stock solutions of 1 mM and serial dilutions were performed in assay buffer (50 mM HEPES, 5 mM MgCl2, 1 mM CaCl2), pH 7.4) containing 0.2% ovalbumin. […] Next, 80 μL membranes (HTS066M, ChemiSCREEN™ Human Neuropeptide Y2 Receptor Membrane Preparation, CHEMICON) were added to each well to give a final protein concentration of 0.5 μg/well. The plates were sealed and incubated at room temperature for 2 hours in a plate shaker set at 400 rpm. The incubation was stopped by vacuum filtration onto 0.5% poly-ethylene amine (PEI) presoaked GF/C filters using a 96-well FilterMate™ harvester (Perkin Elmer) followed by four washes with 300 μl/well ice-cold wash buffer (50 mM HEPES, 500 mM NaCl, pH7.4). Filter plates were then dried for 60 min at room temperature and the bottom of the plates was sealed with backing tape UniFilter-96. Finally, 50 μl/well scintillation counter cocktail (Microscint20, Packard) was added and the radioactivity was counted in the Packard TopCount NXT scintillation counter. IC50 values (the half maximal inhibitory concentration of the agonist) were calculated by nonlinear regression analysis of sigmoidal dose-response curves.
For the compound `CC(C)CC(=O)N[C@@H](C)C(=O)N1CCC[C@H]1C(=O)N[C@@H](CCC(=O)O)C(=O)N[C@@H](CCCCNC(=O)COCCOCCNC(=O)COCCOCCNC(=O)CC[C@H](NC(=O)CCCCCCCCCCCCCCCCC(=O)O)C(=O)O)C(=O)N1CCC[C@H]1C(=O)N[C@@H](CCC(=O)O)C(=O)N[C@@H](C)C(=O)N[C@@H](CC(=O)O)C(=O)N[C@@H](CO)C(=O)N[C@@H](CO)C(=O)N1CCC[C@H]1C(=O)N[C@@H](CCC(=O)O)C(=O)N[C@@H](CCC(=O)O)C(=O)N[C@@H](CC(C)C)C(=O)N[C@@H](CCC(N)=O)C(=O)N[C@@H](CCCNC(=N)N)C(=O)N[C@@H](Cc1ccc(O)cc1)C(=O)N[C@@H](Cc1ccc(O)cc1)C(=O)N[C@H](C(=O)N[C@@H](CO)C(=O)N[C@@H](CC(C)C)C(=O)N[C@@H](CCCNC(=N)N)C(=O)N[C@@H](Cc1c[nH]cn1)C(=O)N[C@@H](Cc1ccc(O)cc1)C(=O)N[C@@H](Cc1ccc(O)cc1)C(=O)N[C@@H](CC(N)=O)C(=O)N[C@@H](Cc1c[nH]c2ccccc12)C(=O)N[C@@H](CC(C)C)C(=O)N[C@H](C(=O)N[C@@H](CCCNC(=N)N)C(=O)N[C@@H](CCC(N)=O)C(=O)N[C@@H](CCCNC(=N)N)C(=O)N[C@@H](Cc1ccc(O)cc1)C(N)=O)[C@@H](C)O)C(C)C` [Compound 136, N{alpha-4}-(3-methylbutanoyl)-N{epsilon-7}-[2-(2-{2-[2-(2-{2-[(4S)-4-carboxy-4-(17-carboxyheptadecanamido)butanamido]ethoxy}ethoxy)acetamido]ethoxy}ethoxy)acetamido]-[4A,7K,9E,10A,12S,18Q,22V,28Y,30W,31L]hPYY (4-36)] (Isovaleryl-APEK([AEEA-AEEA-γGlu-C18 diacid])PEADSSPEELQRYYVSLRHYYNWLTRQRY-NH2), the pKi is 9.05.
The value for `CC(C)CC(=O)N[C@@H](C)C(=O)N1CCC[C@H]1C(=O)N[C@@H](CCC(=O)O)C(=O)N[C@@H](CCCCNC(=O)COCCOCCNC(=O)COCCOCCNC(=O)CC[C@H](NC(=O)CCCCCCCCCCCCCCCCC(=O)O)C(=O)O)C(=O)N1CCC[C@H]1C(=O)N[C@@H](CCC(=O)O)C(=O)N[C@@H](CCC(=O)O)C(=O)N[C@@H](C)C(=O)N[C@@H](C)C(=O)N[C@@H](CO)C(=O)N1CCC[C@H]1C(=O)N[C@@H](CCC(=O)O)C(=O)N[C@@H](CCC(=O)O)C(=O)N[C@@H](CC(C)C)C(=O)N[C@@H](CCC(N)=O)C(=O)N[C@@H](CCCNC(=N)N)C(=O)N[C@@H](Cc1ccc(O)cc1)C(=O)N[C@@H](Cc1ccc(O)cc1)C(=O)N[C@H](C(=O)N[C@H](C(=O)N[C@@H](CC(C)C)C(=O)N[C@@H](CCCNC(=N)N)C(=O)N[C@@H](Cc1c[nH]cn1)C(=O)N[C@@H](Cc1ccc(O)cc1)C(=O)N[C@@H](Cc1ccc(O)cc1)C(=O)N[C@@H](CC(N)=O)C(=O)N[C@@H](Cc1c[nH]c2ccccc12)C(=O)N[C@@H](CC(C)C)C(=O)N[C@H](C(=O)N[C@@H](CCCNC(=N)N)C(=O)N[C@@H](CCC(N)=O)C(=O)N[C@@H](CCCNC(=N)N)C(=O)N[C@@H](Cc1ccc(O)cc1)C(N)=O)[C@@H](C)O)[C@@H](C)O)C(C)C` [Compound 184, N{alpha-4}-(3-methylbutanoyl)-N{epsilon-7}-[2-(2-{2-[2-(2-{2-[(4S)-4-carboxy-4-(17-carboxyheptadecanamido)butanamido]ethoxy}ethoxy)acetamido]ethoxy}ethoxy)acetamido]-[4A,7K,9E,11A,18Q,22V,23T,28Y,30W,31L]hPYY (4-36)] was 8.69; that for `CC(C)CC(=O)N[C@@H](C)C(=O)N1CCC[C@H]1C(=O)N[C@@H](CCC(=O)O)C(=O)N[C@@H](CCCCNC(=O)COCCOCCNC(=O)COCCOCCNC(=O)CC[C@H](NC(=O)CCCCCCCCCCCCCCCCC(=O)O)C(=O)O)C(=O)N1CCC[C@H]1C(=O)N[C@@H](CCC(=O)O)C(=O)N[C@@H](CCC(=O)O)C(=O)N[C@@H](CC(=O)O)C(=O)N[C@@H](C)C(=O)N[C@@H](CO)C(=O)N1CCC[C@H]1C(=O)N[C@@H](CCC(=O)O)C(=O)N[C@@H](CCC(=O)O)C(=O)N[C@@H](CC(C)C)C(=O)N[C@@H](CCC(N)=O)C(=O)N[C@@H](CCCNC(=N)N)C(=O)N[C@@H](Cc1ccc(O)cc1)C(=O)N[C@@H](Cc1ccc(O)cc1)C(=O)N[C@H](C(=O)N[C@@H](CO)C(=O)N[C@@H](CC(C)C)C(=O)N[C@@H](CCCNC(=N)N)C(=O)N[C@@H](Cc1c[nH]cn1)C(=O)N[C@@H](Cc1ccc(O)cc1)C(=O)N[C@@H](Cc1ccc(O)cc1)C(=O)N[C@@H](CC(N)=O)C(=O)N[C@@H](Cc1c[nH]c2ccccc12)C(=O)N[C@@H](CC(C)C)C(=O)N[C@@H](CCC(N)=O)C(=O)N[C@@H](CCCNC(=N)N)C(=O)N[C@@H](CCC(N)=O)C(=O)N[C@@H](CCCNC(=N)N)C(=O)N[C@@H](Cc1ccc(O)cc1)C(N)=O)C(C)C` [Compound 4, N{alpha-4}-(3-methylbutanoyl)-N{epsilon-7}-[2-(2-{2-[2-(2-{2-[(4S)-4-carboxy-4-(17-carboxyheptadecanamido)butanamido]ethoxy}ethoxy)acetamido]ethoxy}ethoxy)acetamido]-[4A,7K,9E,18Q,22V,28Y,30W,31L,32Q]hPYY (4-36)] was 8.84; that for `CC(C)CC(=O)N[C@@H](C)C(=O)N1CCC[C@H]1C(=O)N[C@@H](CCC(=O)O)C(=O)N[C@@H](CCCCNC(=O)COCCOCCNC(=O)COCCOCCNC(=O)CC[C@H](NC(=O)CCCCCCCCCCCCCCCCC(=O)O)C(=O)O)C(=O)N1CCC[C@H]1C(=O)N[C@@H](CCC(=O)O)C(=O)N[C@@H](CCC(=O)O)C(=O)N[C@@H](C)C(=O)N[C@@H](C)C(=O)N[C@@H](CO)C(=O)N1CCC[C@H]1C(=O)N[C@@H](CCC(=O)O)C(=O)N[C@@H](CCC(=O)O)C(=O)N[C@@H](CC(C)C)C(=O)N[C@@H](CCC(N)=O)C(=O)N[C@@H](CCCNC(=N)N)C(=O)N[C@@H](Cc1ccc(O)cc1)C(=O)N[C@@H](Cc1ccc(O)cc1)C(=O)N[C@H](C(=O)N[C@@H](CO)C(=O)N[C@@H](C)C(=O)N[C@@H](CCCNC(=N)N)C(=O)N[C@@H](Cc1c[nH]cn1)C(=O)N[C@@H](Cc1ccc(O)cc1)C(=O)N[C@@H](Cc1ccc(O)cc1)C(=O)N[C@@H](CC(N)=O)C(=O)N[C@@H](Cc1c[nH]c2ccccc12)C(=O)N[C@@H](CC(C)C)C(=O)N[C@H](C(=O)N[C@@H](CCCNC(=N)N)C(=O)N[C@@H](CCC(N)=O)C(=O)N[C@@H](CCCNC(=N)N)C(=O)N[C@@H](Cc1ccc(O)cc1)C(N)=O)[C@@H](C)O)C(C)C` [Compound 141, N{alpha-4}-(3-methylbutanoyl)-N{epsilon-7}-[2-(2-{2-[2-(2-{2-[(4S)-4-carboxy-4-(17-carboxyheptadecanamido)butanamido]ethoxy}ethoxy)acetamido]ethoxy}ethoxy)acetamido]-[4A,7K,9E,11A,18Q,22V,24A,28Y,30W,31L]hPYY (4-36)] (Isovaleryl-APEK([AEEA-AEEA-γGlu-C18 diacid])PEEAASPEELQRYYVSARHYYNWLTRQRY-NH2) was 8.51.
For the compound `CC(C)CC(=O)N[C@@H](C)C(=O)N1CCC[C@H]1C(=O)N[C@@H](CCC(=O)O)C(=O)N[C@@H](CCCCNC(=O)COCCOCCNC(=O)COCCOCCNC(=O)CC[C@H](NC(=O)CCCCCCCCCCCCCCCCC(=O)O)C(=O)O)C(=O)N1CCC[C@H]1C(=O)N[C@@H](CCC(=O)O)C(=O)N[C@@H](CCC(=O)O)C(=O)N[C@@H](CC(=O)O)C(=O)N[C@@H](C)C(=O)N[C@@H](C)C(=O)N1CCC[C@H]1C(=O)N[C@@H](CCC(=O)O)C(=O)N[C@@H](CCC(=O)O)C(=O)N[C@@H](CC(C)C)C(=O)N[C@@H](CCC(N)=O)C(=O)N[C@@H](CCCNC(=N)N)C(=O)N[C@@H](Cc1ccc(O)cc1)C(=O)N[C@@H](Cc1ccc(O)cc1)C(=O)N[C@H](C(=O)N[C@@H](CO)C(=O)N[C@@H](CC(C)C)C(=O)N[C@@H](CCCNC(=N)N)C(=O)N[C@@H](Cc1c[nH]cn1)C(=O)N[C@@H](Cc1ccc(O)cc1)C(=O)N[C@@H](Cc1ccc(O)cc1)C(=O)N[C@@H](CC(N)=O)C(=O)N[C@@H](Cc1c[nH]c2ccccc12)C(=O)N[C@@H](CC(C)C)C(=O)N[C@H](C(=O)N[C@@H](CCCNC(=N)N)C(=O)N[C@@H](CCC(N)=O)C(=O)N[C@@H](CCCNC(=N)N)C(=O)N[C@@H](Cc1ccc(O)cc1)C(N)=O)[C@@H](C)O)C(C)C` [Compound 122, N{alpha-4}-(3-methylbutanoyl)-N{epsilon-7}-[2-(2-{2-[2-(2-{2-[(4S)-4-carboxy-4-(17-carboxyheptadecanamido)butanamido]ethoxy}ethoxy)acetamido]ethoxy}ethoxy)acetamido]-[4A,7K,9E,13A,18Q,22V,28Y,30W,31L]hPYY (4-36)], the pKi is 8.74.

Usually pKi stands for the Ki on a negative log10 scale, so that one unit is a factor of ten.
